From patent US5712417A, “Inhibitors of retroviral proteases” (Abbott Laboratories, priority 1989, dated 1998)
Structures can show the parent of a compound that is named as a salt.

The compounds below were run against T1, HIV protease (Human immunodeficiency virus type 1 group M subtype B, UniProt P04585) (assay: Inhibition of HIV protease (cleavage of H-Ser-Phe-Asn-Phe-Opr-Gln-Ile-OH, HPLC)). Settings: inhibitor concentration at which the cleavage rate is halved; pH 6, 2 hours.
T1 construct: HIV protease consists of 99 amino acids and is evidently split off by itself from the pol polyprotein
Assay type: biochemical
Description: The compounds of the formula (I) according to the invention have enzyme-inhibiting properties. In particular, they inhibit the action of retroviral aspartyl proteases, such as that of HIV protease. Their enzyme-inhibitory action, which is in the milli- to subnanomolar range, can be determined as follows.
The heptapeptide: H-Ser-Phe-Asn-Phe-Pro-Gln-Ile-OH (P. L. Darke et al., Biophys. Res. Commun. 156 (1988) 297-303), inter alia, has hitherto been used as the substrate of HIV protease. HIV protease cleaves the substrate here between the second Phe and Pro.
General instructions for testing inhibitors of HIV proteases: a) Preparation of the substrate solution:
2 mg of H-Ser-Phe-Asn-Phe-Opr-Gln-Ile-OH (H-Opr-OH=5-oxaproline) are dissolved in 1 ml of MGTE15 buffer (use of ultrasound if necessary) and the solution is then filtered over a sterile filter (0.45 μm). […]
b) Preparation of the inhibitor solution:
2.5 times the desired molarity of the inhibitor per ml of solution are weighed out and dissolved in DMSO (10% of the final volume). The solution is diluted to the final volume with MGTE15 buffer and filtered over a sterile filter (0.45 μm). […]
c) Preparation of the protease solution:
5 μl of the HIV protease solution are diluted with MGTE25 buffer as required.
10 μl portions of the substrate solution are pipetted into test-tubes (16×100) with a screw cap. For the blank experiment, 10 μl of MGTE15 buffer containing 10% of DMSO are pipetted into a test-tube. 10 μl portions of the inhibitor solutions are added to the other test-tubes. The mixtures are incubated at 37° C. for 5-10 minutes and 5 μl of the protease solution are then added to each sample, After reaction at 35° C. for 2 hours, 10 or 20 μl (depending on the sensitivity of the HPLC apparatus) of each sample are then pipetted off, introduced into microvials and diluted with 120 μl of the HPLC mobile phase. […]
e) Conditions for the HPLC analysis:
20% (weight/weight) of aceto-
Column: Merck ®LICHROSORB RP18 (5 μm) 250×4
Column temperature: 42° C.
Detector parameters: 215 nm, 0.08 AUF, 18.2° C.
Analysis time: 11 minutes
Retention time of the substrate: 8.1 minutes
Retention time of the N-terminal tetrapeptide: 3.9 minutes
20 mM morpholinoethanesulfonic acid (MES)
15% (weight/volume) of glycerol
0.1% (volume/volume) of Triton ×100
1 mM phenylmethylsulfonyl fluoride (PMSF)
25% (weight/volume) of glycerol, additionally 1 mM dithiothreitol (DTT) The MES, EDTA, NaCl, DTT and PMSF are weighed into a conical flask and dissolved in a little water and the pH is brought to 6. The corresponding amount of glycerol is weighed into a measuring flask and ®Triton ×100 is pipetted in. The aqueous solution is transferred to the measuring flask and made up to the mark with water.
A 0.1M solution is prepared from orthophosphoric acid (FLUKA extra pure analytical grade). This solution is brought to exactly pH 2.5 with triethylamine (FLUKA extra pure analytical grade). The weight of the solution is determined and the corresponding amount of acetonitrile (fume cupboard) is weighed in. The mixture is mixed thoroughly and degassed with helium 5.0 for about 5 minutes.
Under the conditions chosen here, heptapeptides are separated from the N-terminal tetrapeptide formed during enzymatic cleavage. The percentage content of the tetrapeptide peak in respect of the sum of tetrapeptide+heptapeptide corresponds to the cleaving rate. The following IC50 values indicate the inhibitor concentration at which the cleavage rate is halved.
With `CC(C)[C@H](NC(=O)[C@H](Cc1ccccc1)NC(=O)[C@H]1CC[C@@H](NC(=O)OC(C)(C)C)CC1)C(=O)N[C@@H](Cc1ccccc1)[C@H](O)[C@@H](O)[C@H](Cc1ccccc1)NC(=O)[C@@H](NC(=O)[C@H](Cc1ccccc1)NC(=O)[C@H]1CC[C@@H](NC(=O)OC(C)(C)C)CC1)C(C)C` [Example 50, N,N'-bis-(4Z -N-tert.-Butoxycarbonylamino)-cyclohexanecarbonyl-L-phenylalanyl-L-valyl)-2S, 5S-diamino-1,6-diphenyl-4S, 5S-diol dihydrochloride] the IC50 was 45 nM.

Same assay, conditions: inhibitor concentration at which the cleavage rate is halved; pH 6, 2 hours; read-out: IC50
`CC(C)[C@H](NC[C@@H](N)Cc1ccccc1)C(=O)N[C@@H](Cc1ccccc1)[C@H](O)[C@@H](O)[C@H](Cc1ccccc1)NC(=O)[C@@H](NC[C@@H](N)Cc1ccccc1)C(C)C` [Example 28, N,N'-bis-(2S-<2S-Amino-3-phenylpropyl>-amino-3-methyl-butanoyl)-2S,5S-diamino-1,6-diphenylhexane-3S,4S-diol tetrahydrochloride] was tested, and the IC50 was 3000 nM.
Work on `CC(C)[C@H](NC(=O)[C@@H](N)Cc1ccccc1)C(=O)N[C@H](Cc1ccccc1)[C@@H](O)[C@H](O)[C@@H](Cc1ccccc1)NC(=O)[C@@H](NC(=O)[C@@H](N)Cc1ccccc1)C(C)C` [Example 30, N,N'-bis-(L-Phenylalanyl-L-valyl)-2R,5R-diamino-1,6-diphenylhexane-3R,4R-diol dihydrochloride] yielded an IC50 of 30 nM.
Compound `CC(C)[C@H](NC(=O)[C@H](Cc1ccccc1)NC(=O)OC(C)(C)C)C(=O)N[C@H](Cc1ccccc1)[C@@H](O)[C@H](O)[C@@H](Cc1ccccc1)NC(=O)[C@@H](NC(=O)[C@H](Cc1ccccc1)NC(=O)OC(C)(C)C)C(C)C` [Example 33, N,N'-bis-(tert.-Butoxycarbonyl-L-phenylalanyl-L-valyl)-2R,5R-diamino-1,6-diphenylhexane-3R,4R-diol] has an IC50 of 20000 nM.
Compound `CC(C)[C@H](NC(=O)[C@@H](N)Cc1cccc2ccccc12)C(=O)N[C@@H](Cc1ccccc1)[C@@H](O)[C@H](O)[C@H](Cc1ccccc1)NC(=O)[C@@H](NC(=O)[C@@H](N)Cc1cccc2ccccc12)C(C)C` [Example 39, N,N'-bis-(L-(1-Naphthyl)-alanyl-L-valyl)-2S,5S-diamino-1,6-diphenylhexane-3R,4R-diol dihydrochloride] has an IC50 of 1.3 nM.
`CC(C)[C@H](NC(=O)[C@H](Cc1cccc2ccccc12)NC(=O)OC(C)(C)C)C(=O)N[C@@H](Cc1ccccc1)[C@@H](O)[C@H](O)[C@H](Cc1ccccc1)NC(=O)[C@@H](NC(=O)[C@H](Cc1cccc2ccccc12)NC(=O)OC(C)(C)C)C(C)C` [Example 40, N,N'-bis-(tert.-Butoxycarbonyl-L-(1-naphthyl)-alanyl-L-valyl)-2S,5S-diamino-1,6-diphenylhexane-3R,4R-diol] was tested, and the IC50 was 13 nM.
`CC(C)[C@H](NC(=O)[C@@H](N)Cc1ccccc1)C(=O)N[C@@H](CC1CCCCC1)[C@H](O)[C@@H](O)[C@H](CC1CCCCC1)NC(=O)[C@@H](NC(=O)[C@@H](N)Cc1ccccc1)C(C)C` [Example 43, N,N'-bis-[L-Phenylalanyl-L-valyl]-2S,5S-diamino-1,6-dicyclohexylhexane-3S,4S-diol dihydrochloride] was tested, and the IC50 was 1 nM.
Compound `CC(C)[C@H](NC(=O)[C@H](Cc1ccccc1)NC(=O)OC(C)(C)C)C(=O)N[C@@H](CC1CCCCC1)[C@H](O)[C@@H](O)[C@H](CC1CCCCC1)NC(=O)[C@@H](NC(=O)[C@H](Cc1ccccc1)NC(=O)OC(C)(C)C)C(C)C` [Example 45, N,N'-bis-(tert.-Butoxycarbonyl-L-phenylalanyl-L-valyl)-2S,5S-diamino-1,6-dicyclohexylhexane-3S,4S-diol] has an IC50 of 1500 nM.
Compound `CC(C)(C)OC(=O)N[C@@H](CC1CCCCC1)[C@H](O)[C@H](O)[C@H](CC1CCCCC1)NC(=O)OC(C)(C)C` [Example 48, N,N'-bis-(tert.-Butoxycarbonyl)-2S, 5S-diamino-1,6-dicyclohexylhexane-3R, 4S-diol] has an IC50 of 80000 nM.
`CC(C)[C@H](NC(=O)[C@H](Cc1cccc2ccccc12)CS(=O)(=O)C(C)(C)C)C(=O)N[C@@H](Cc1ccccc1)[C@H](O)[C@@H](O)[C@H](Cc1ccccc1)NC(=O)[C@@H](NC(=O)[C@H](Cc1cccc2ccccc12)CS(=O)(=O)C(C)(C)C)C(C)C` [Example 51, N,N'-bis-<(2S-(1,1-Dimethylethylsulfonylmethyl)-3-(1-naphthyl)-propionyl)-L-valyl>-2S,5S-diamino-1,6-diphenyl-hexane-3S,4S-diol] gave an IC50 of 0.8 nM.
`CC(C)[C@H](NC(=O)[C@@H](Cc1cccs1)CS(=O)(=O)C(C)(C)C)C(=O)N[C@@H](Cc1ccccc1)[C@@H](O)[C@H](O)[C@H](Cc1ccccc1)NC(=O)[C@@H](NC(=O)[C@@H](Cc1cccs1)CS(=O)(=O)C(C)(C)C)C(C)C` [Example 54, N,N,-bis-<(2R-(1,1-Dimethylethylsulfonylmethyl)-3-(2-thienyl)-propionyl)-L-valyl>-2S,5S-diamino-1,6-diphenyl-hexane-3R,4R-diol] was tested, and the IC50 was 260 nM.
With `CC(C)C[C@H](NC(=O)[C@@H](NC(=O)[C@@H](N)Cc1ccccc1)C(C)C)C(O)C(O)[C@H](CC(C)C)NC(=O)[C@@H](NC(=O)[C@@H](N)Cc1ccccc1)C(C)C` (stereo partly drawn) [Example 55, N,N'-bis-(L-Phenylalanyl-L-valyl)-4S,7S-diamino-2,9-dimethyldecane-5,6-dioldihydrochloride] the IC50 was 1.3 nM.
Work on `CC(C)[C@H](NC(=O)Cc1ccccn1)C(=O)N[C@@H](Cc1ccccc1)[C@@H](O)[C@H](O)[C@H](Cc1ccccc1)NC(=O)[C@@H](NC(=O)Cc1ccccn1)C(C)C` [Example 58, N,N'-bis-<(2-Pyridyl)-acetyl-L-valyl>-2S,5S-diamino-1,6-diphenylhexane-3R,4R-diol] yielded an IC50 of 49 nM.
With `CC(C)[C@H](NC(=O)CSc1ccncc1)C(=O)N[C@@H](Cc1ccccc1)[C@@H](O)[C@H](O)[C@H](Cc1ccccc1)NC(=O)[C@@H](NC(=O)CSc1ccncc1)C(C)C` [Example 59, N,N'-bis-<(4-Pyridylthio)-acetyl-L-valyl>-2S,5S-diamino-1,6-diphenylhexane-3R,4R-diol] the IC50 was 47 nM.
Work on `CC(C)[C@H](NC(=O)[C@H](N)Cc1ccccc1)C(=O)N[C@@H](Cc1ccccc1)[C@H](O)[C@@H](O)[C@H](Cc1ccccc1)NC(=O)[C@@H](NC(=O)[C@H](N)Cc1ccccc1)C(C)C` [Example 61, N,N'-bis-<D-Phenylalanyl-L-valyl>-2S,5S-diamino-1,6-diphenylhexane-3S,4S-diol dihydrochloride] yielded an IC50 of 400 nM.
In the case of `CC(C)[C@H](NC(=O)[C@@H](Cc1ccccc1)NC(=O)OC(C)(C)C)C(=O)N[C@@H](Cc1ccccc1)[C@H](O)[C@@H](O)[C@H](Cc1ccccc1)NC(=O)[C@@H](NC(=O)[C@@H](Cc1ccccc1)NC(=O)OC(C)(C)C)C(C)C` [Example 63, N,N'-bis-<tert.-Butoxycarbonyl-D-phenylalanyl-L-valyl>-2S,5S-diamino-1,6-diphenylhexane-3S,4S-diol], the IC50 is reported as 6.5 nM.
Compound `CC[C@H](C)[C@H](NC(=O)[C@@H](N)Cc1ccccc1)C(=O)N[C@@H](Cc1ccccc1)[C@H](O)[C@@H](O)[C@H](Cc1ccccc1)NC(=O)[C@@H](NC(=O)[C@@H](N)Cc1ccccc1)[C@@H](C)CC` [Example 65, N,N'-bis-<L-Phenylalanyl-L-isoleucyl>-2S,5S-diamino-1,6-diphenylhexane-3S,4S-diol dihydrochloride] has an IC50 of 1.8 nM.

Same assay, conditions: pH 6; read-out: IC50
For `CC(C)[C@H](NC(=O)[C@H](Cc1ccccc1)NC(=O)[C@H]1CC[C@@H](N)CC1)C(=O)N[C@@H](Cc1ccccc1)[C@H](O)[C@@H](O)[C@H](Cc1ccccc1)NC(=O)[C@@H](NC(=O)[C@H](Cc1ccccc1)NC(=O)[C@H]1CC[C@@H](N)CC1)C(C)C` [Example 49, N,N'-bis-(4Z-Aminocyclohexanecarbonyl-L-phenylalanyl-L-valyl)-2S, 5S-diamino-1,6-diphenyl-3S, 5S-diol dihydrochloride], the IC50 was 1.2 nM.
